Measurements from patent US20170000784A1, “Autophagy Inhibitors” (priority 2013, published 2017).

Test system: Plasmodium berghei
Assay: In vivo compound efficacy in Plasmodium berghei
Conditions: mice; oral 50 mg/kg at 4, 24, 48 and 72 hours post-infection; day 4
Procedure: Mice were infected intravenously with parasitized red blood cells on day 0 (2×10^7 parasitized erythrocytes per mL). Experimental mice were treated at 4, 24, 48, and 72 hours post-infection with an oral dose of Example 7 at 50 mg/kg and were compared to an infected control group for the % reduction in parasitaemia on day 4 (96 hours post-infection) and for mean survival (monitored up to 30 days post-infection). A compound was considered curative if the animal survived to day 30 after infection with no detectable parasites.
The potent anti-malarial activity of Example 7, combined with its therapeutic window in vitro, led us to explore its activity in vivo using a murine model of malaria. Mice are infected with the murine specific Plasmodium, P. berghei, after which an antimalarial treatment regimen is given. Example 7 was given at 50 mg/kg at times 4, 24, 48, and 72 hours post-infection of mice already infected with P. berghei. The reduction in parasitemia, measured as the total blood load of the P. berghei parasite, was compared to an infected control group for the percent reduction of parasite on day 4 (96 hours post-infection). Example 7 was unexpectedly shown to be effective in reducing parasitemia by 99% compared to the infected control group after 4 days, making it an effective antimalarial in these preclinical models.

COc1ccc2nc3cc(Cl)ccc3c(NCCCCN3CCN(C)CC3)c2c1 [Example 7, 6-Chloro-2-methoxy-N-(4-(4-methylpiperazin-1-yl)butyl)acridin-9-amine]
reduction in parasitemia compared to the infected control group: 99%
